The results in this text go back to patent publication US8217055B2, “Pyrido-pyrazine derivatives useful as herbicidal compounds” (Syngenta Crop Protection LLC, priority 2006, dated 2012).

Holding throughout (format): in vivo
In one assay the test system is test plants. Kind of assay: Example B1 herbicidal action, post-emergence, all test plants together. The note with it: same protocol as Example B1 (post-emergence, 1000 g/ha, 9 days). The procedure:
(§1) Seeds of a variety of test species were sown in sterilised standard soil in seed trays each having 96 cells. After cultivation for 8 to 9 days cultivation (post-emergence) under controlled conditions in a climatic chamber (cultivation at 23/17° C., day/night; 13 hours light; 50-60% humidity), the plants were treated with an aqueous spray solution of 1000 mg/l of the active ingredient dissolved in 10% DMSO (dimethyl sulfoxide, CAS RN 67-68-5) as a solvent, equivalent to 1000 g/ha. The plants were grown in the climatic chamber after application at (24/19° C., day/night; 13 hours light; 50-60% humidity) and watered twice daily. After 9 days until the test was evaluated (10=total damage to plant, 0=no damage to plant)

The subject of assay [1] is Amaranthus retroflexus. Kind of assay: Example B1 herbicidal action, post-emergence, seed trays in climatic chamber (score 10=total damage to plant, 0=no damage to plant). Particulars: Application post-emergence, 1000 g/ha, evaluated after 9 days. The procedure:
as §1

The subject of the next assay is Nasturtium officinale. The description is as above. Particulars: Application post-emergence, 1000 g/ha, evaluated after 9 days. As for the experimental part: as §1
The next assay has as its system Solanum nigrum. The assay is described as above. Particulars: Application post-emergence, 1000 g/ha, evaluated after 9 days. The procedure: as §1
The next assay has as its system Stellaria media. The assay is described as above. Particulars: Application post-emergence, 1000 g/ha, evaluated after 9 days. As for the experimental part:
as §1

For the next assay, the system named is Alopecurus myosuroides. Kind of assay: Example B3 herbicidal action, post-emergence, small pots in glasshouse (score 10=total damage to plant, 0=no damage to plant). Particulars: Application post-emergence, 1000 g/ha, evaluated after 13 days. The procedure: (§2) Seeds of a variety of test species were sown in sterilised compost in small pots. After cultivation for seven days (post-emergence) in controlled conditions in the glasshouse (at 24/16° C., day/night; 14 hours light; 65% humidity) the plants were sprayed with 1 mg of the active ingredient, formulated in 2.5 ml acetone/water (50:50) solution, which is equivalent to 1000 g/ha. Once the foliage was dry, the pots were kept in the glasshouse (at 24/16° C., day/night; 14 hours light; 65% humidity), and were watered twice daily. After 13 days the test was evaluated (10=total damage to plant, 0=no damage to plant).

For assay [2], the system named is Amaranthus retroflexus. The description is as above. Particulars: Application post-emergence, 1000 g/ha, evaluated after 13 days. As for the experimental part: as §2
A further assay concerns Chenopodium album. Described as above. The note with it: Application post-emergence, 1000 g/ha, evaluated after 13 days. As for the experimental part: as §2
A further assay has as its system Digitaria sanguinalis. The description is as above. The note with it: Application post-emergence, 1000 g/ha, evaluated after 13 days. The procedure: as §2
Assay [3] deals with test plants (a variety of test species). Kind of assay: Example B2 herbicidal action, post-emergence, pots in glasshouse, evaluated after 13 days (score 10=total damage to plant; 0=no damage to plant). The note with it: same protocol as Example B2 (post-emergence, evaluated after 13 days). The procedure: Seeds of a variety of test species were sown in standard soil in pots. After 8 days cultivation (post-emergence) under controlled conditions in a glasshouse (at 24/16° C., day/night; 14 hours light; 65% humidity), the plants were sprayed with an aqueous spray solution derived from the formulation of the technical active ingredient in acetone/water (50:50) solution containing 0.5% Tween 20 (polyoxyethelyene sorbitan monolaurate, CAS RN 9005-64-5). The test plants were then grown in a glasshouse under controlled conditions in a glasshouse (at 24/16° C., day/night; 14 hours light; 65% humidity) and watered twice daily. After 13 days, the test was evaluated (10=total damage to plant; 0=no damage to plant).

As for `CC(C)(C)C(=O)Oc1c(-c2ccccc2OC(F)(F)F)c(=O)n(CCCCCl)c2nccnc12` [C1], the “damage to the test plants” value with test plants is “no damage or very little damage”.

In the case of `CC(C)(C)C(=O)Oc1c(-c2ccccc2OC(F)(F)F)c(=O)n(CCC(F)(F)C(F)(F)F)c2nccnc12` [C3], the “damage to the test plants” value in the assay with test plants is “no damage or very little damage”.

`CC(C)(C)C(=O)Oc1c(-c2c(F)ccc(F)c2Cl)c(=O)n(CCC(F)(F)C(F)(F)F)c2nccnc12` [C7]: the “AMARE (damage to plant)” value with Amaranthus retroflexus [1] turned out to be 0. Further, the “NAAOF (damage to plant)” value in the assay with Nasturtium officinale is reported as 0. Besides, the “SOLNI (damage to plant)” value with Solanum nigrum is given as 3. Besides, the “STEME (damage to plant)” value with Stellaria media stood at 0.

As to `CC(C)(C)C(=O)Oc1c(-c2ccccc2I)c(=O)n(CC(F)F)c2nccnc12` [A36], the “ALOMY (damage to plant)” value with Alopecurus myosuroides was 8. Also, the “AMARE (damage to plant)” value with Amaranthus retroflexus [2] came out at 10. Moreover, in the assay with Chenopodium album, the “CHEAL (damage to plant)” value is listed as 10. Besides, in the assay with Digitaria sanguinalis, the “DIGSA (damage to plant)” value is listed as 5.

Regarding `CC(C)(C)C(=O)Oc1c(-c2cc(C(F)(F)F)ccc2Cl)c(=O)n(CC(F)F)c2nccnc12` [A8], the “AMARE (damage to plant)” value with Amaranthus retroflexus [1] is 6. For the same molecule, the “NAAOF (damage to plant)” value in the assay with Nasturtium officinale is reported as 7. For the same molecule, the “SOLNI (damage to plant)” value in the assay on Solanum nigrum was 6. Further, in the assay with Stellaria media, the “STEME (damage to plant)” value came out at 7.

As to `Cc1ccc(Cl)c(-c2c(OC(=O)C(C)C)c3nccnc3n(CC(F)F)c2=O)c1F` [A6], the “AMARE (damage to plant)” value in the assay with Amaranthus retroflexus [1] was 5. The “NAAOF (damage to plant)” value with Nasturtium officinale is 7. The “SOLNI (damage to plant)” value with Solanum nigrum is recorded as 0. Moreover, the “STEME (damage to plant)” value in the assay on Stellaria media was found to be 7.

In the case of `CC(C)C(=O)Oc1c(-c2cc(C(F)(F)F)ccc2Cl)c(=O)n(CC(F)F)c2nccnc12` [A7], in the assay on Amaranthus retroflexus [1], the “AMARE (damage to plant)” value amounted to 4. Also, the “NAAOF (damage to plant)” value in the assay on Nasturtium officinale was 7. In addition, in the assay on Solanum nigrum, the “SOLNI (damage to plant)” value was 5. For the same molecule, the “STEME (damage to plant)” value in the assay on Stellaria media is recorded as 8.

As to `O=c1c(-c2c(F)ccc(F)c2Cl)c(O)c2nccnc2n1CC(F)F` [B2, 7-(2-chloro-3,6-difluoro-phenyl)-5-(2,2-difluoro-ethyl)-8-hydroxy-5H-pyrido[2,3-b]pyrazin-6-one], in the assay on Amaranthus retroflexus [1], the “AMARE (damage to plant)” value worked out at 6. Besides, the “NAAOF (damage to plant)” value in the assay with Nasturtium officinale was 8. The “SOLNI (damage to plant)” value in the assay with Solanum nigrum came out at 5. The “STEME (damage to plant)” value with Stellaria media was 8.

As to `CC(C)(C)C(=O)Oc1c(-c2c(F)ccc(F)c2Cl)c(=O)n(CCC(F)(F)F)c2nccnc12` [C6], the “AMARE (damage to plant)” value in the assay with Amaranthus retroflexus [1] was 0. The “NAAOF (damage to plant)” value with Nasturtium officinale turned out to be 0. In addition, the “SOLNI (damage to plant)” value in the assay on Solanum nigrum was found to be 1. The “STEME (damage to plant)” value in the assay with Stellaria media is reported as 3.

`CC(C)(C)C(=O)Oc1c(-c2c(F)ccc(F)c2Cl)c(=O)n(CCCCl)c2nccnc12` [C5]: the “damage to the test plants” value with test plants is given as “no damage or very little damage”.

`CC(C)C(=O)Oc1c(-c2c(F)ccc(F)c2Cl)c(=O)n(CC(F)F)c2nccnc12` [A3]: the “AMARE (damage to plant)” value with Amaranthus retroflexus [1] is recorded as 6. Moreover, the “NAAOF (damage to plant)” value in the assay with Nasturtium officinale was 7. The “SOLNI (damage to plant)” value in the assay on Solanum nigrum is 5. In addition, the “STEME (damage to plant)” value in the assay on Stellaria media is 9.

With `Cc1cnc2c(OC(=O)C(C)(C)C)c(-c3c(F)ccc(F)c3Cl)c(=O)n(CC(F)F)c2n1` [A30], in [3], the “damage to the test plants” value is given as “no damage or very little damage”.

Take `O=c1c(-c2cccc(C(F)(F)F)c2Cl)c(O)c2nccnc2n1CC(F)F` [B1]: the “AMARE (damage to plant)” value in the assay with Amaranthus retroflexus [1] amounted to 0. The “NAAOF (damage to plant)” value with Nasturtium officinale worked out at 6. Moreover, the “SOLNI (damage to plant)” value in the assay with Solanum nigrum worked out at 6. In addition, the “STEME (damage to plant)” value with Stellaria media is reported as 5.

With `Cc1cnc2c(n1)c(OC(=O)C(C)(C)C)c(-c1c(F)ccc(F)c1Cl)c(=O)n2CC(F)F` [A29], in assay [3], the “damage to the test plants” value was “no damage or very little damage”.

For the molecule `CC(C)C(=O)Oc1c(-c2cccc(C(F)(F)F)c2Cl)c(=O)n(CC(F)F)c2nccnc12` [A4], in the assay on Alopecurus myosuroides, the “ALOMY (damage to plant)” value was 0. In addition, the “AMARE (damage to plant)” value with Amaranthus retroflexus [2] is reported as 10. Also, in the assay on Chenopodium album, the “CHEAL (damage to plant)” value stood at 10. For the same molecule, in the assay on Digitaria sanguinalis, the “DIGSA (damage to plant)” value is on record as 7.

With `CC(C)(C)C(=O)Oc1c(-c2c(F)ccc(F)c2Cl)c(=O)n(CC(F)F)c2ncc(-c3ccccc3)nc12` [A31], the “damage to the test plants” value in [3] is on record as “no damage or very little damage”.
